# Test results taken from PubChem BioAssay AID1963445 (Molecular Pharmacology Branch, DTP, NCI, 2024).
# Where “and” joins values, the source holds several entries; their conditions need not be identical. Identical values can stand only once.
# System: MCF7 complex spheroid growth, % test/control
# Test: Anticancer human tumor MCF7 cell line growth inhibition [Asc];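 further: spheroids exposed to compounds for 7 days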;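 on viability, T/C: 100% = DMSO vehicle control wells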
# Settings: for viability, T/C: stronger effect = lower value
# Summary of the method: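 Stromal components (HUVEC and hMSC) are co-assembled with the cancer cells into multicellular spheroids. Drugs are then added singly or paired, at concentrations falling by half-log increments from a clinically achievable maximum, capped at 10 microM without known Cmax.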
compound,measurement,setting,value
O=C(c1cc(Cc2n[nH]c(=O)c3ccccc23)ccc1F)N1CCN(C(=O)C2CC2)CC1,"viability, T/C",compound 0.0316 µM,104% and 99% and 94.7%
same,"viability, T/C",compound 0.1 µM,90.7% and 89.4% and 111%
same,"viability, T/C",compound 0.316 µM,95.8% and 90.3% and 114%
same,"viability, T/C",compound 1 µM,104% and 121% and 97.4%
same,"viability, T/C",compound 3.16 µM,81.3% and 87.6% and 46.4%
same,"viability, T/C",compound 10 µM,71.4% and 72.6% and 15.8%
same,IC50,curve of compound,> 10000 nM and 2910 nM
CCN1C(C(=O)NC23CCC(C(=O)O)(CC2)CC3)C(c2cccc(Cl)c2F)C2(C(=O)Nc3cc(Cl)ccc32)C12CCCCC2 (stereo unspecified),"viability, T/C",compound 0.00949 µM,102% [middle of 9 runs]
same,"viability, T/C",compound 0.0949 µM,48.1% [middle of 9 runs]
same,"viability, T/C",compound 0.3 µM,33.8% [middle of 9 runs]
same,"viability, T/C",compound 0.949 µM,23.2% [middle of 9 runs]
same,"viability, T/C",compound 3 µM,15.6% [middle of 9 runs]
same,IC50,"compound alone, run of 11/07/2022",94.5 nM [middle of 7 runs]
same,IC50,curve of compound,70.9 nM and 108 nM
Cn1ncnc1[C@H]1c2n[nH]c(=O)c3cc(F)cc(c23)N[C@@H]1c1ccc(F)cc1 + CNC(C)C(=O)NC1CN(S(=O)(=O)c2cccc(S(=O)(=O)N3CCC4CCC(C(=O)NC(c5ccccc5)c5ccccc5)N4C(=O)C(NC(=O)C(C)NC)C3)c2)CCC2CCC(C(=O)NC(c3ccccc3)c3ccccc3)N2C1=O,IC50,"curve of first compound, second compound 0.00316 µM",< 0.316 nM
same,IC50,"curve of first compound, second compound 0.01 µM",< 0.316 nM
same,IC50,"curve of first compound, second compound 0.0316 µM",< 0.316 nM
same,IC50,"curve of first compound, second compound 0.1 µM",< 0.316 nM
same,IC50,"curve of first compound, second compound 0.316 µM",< 0.316 nM
same,IC50,"curve of first compound, second compound 1 µM",< 0.316 nM
same,"viability, T/C","second compound 0.00316 µM, first compound 0.000316 µM",13.7%
same,"viability, T/C","second compound 0.00316 µM, first compound 0.001 µM",11.2%
same,"viability, T/C","second compound 0.00316 µM, first compound 0.00316 µM",11.4%
same,"viability, T/C","second compound 0.00316 µM, first compound 0.01 µM",13.2%
same,"viability, T/C","second compound 0.00316 µM, first compound 0.0316 µM",12.5%
same,"viability, T/C","second compound 0.00316 µM, first compound 0.1 µM",10.1%
same,"viability, T/C","second compound 0.01 µM, first compound 0.000316 µM",12.8%
same,"viability, T/C","second compound 0.01 µM, first compound 0.001 µM",12.4%
same,"viability, T/C","second compound 0.01 µM, first compound 0.00316 µM",14.8%
same,"viability, T/C","second compound 0.01 µM, first compound 0.01 µM",12.8%
same,"viability, T/C","second compound 0.01 µM, first compound 0.0316 µM",12.4%
same,"viability, T/C","second compound 0.01 µM, first compound 0.1 µM",12.7%
same,"viability, T/C","second compound 0.0316 µM, first compound 0.000316 µM",10.1%
same,"viability, T/C","second compound 0.0316 µM, first compound 0.001 µM",10.7%
same,"viability, T/C","second compound 0.0316 µM, first compound 0.00316 µM",12.2%
same,"viability, T/C","second compound 0.0316 µM, first compound 0.01 µM",9.67%
same,"viability, T/C","second compound 0.0316 µM, first compound 0.0316 µM",9.98%
same,"viability, T/C","second compound 0.0316 µM, first compound 0.1 µM",12.2%
same,"viability, T/C","second compound 0.1 µM, first compound 0.000316 µM",11.1%
same,"viability, T/C","second compound 0.1 µM, first compound 0.001 µM",14.1%
same,"viability, T/C","second compound 0.1 µM, first compound 0.00316 µM",11.7%
same,"viability, T/C","second compound 0.1 µM, first compound 0.01 µM",11.5%
same,"viability, T/C","second compound 0.1 µM, first compound 0.0316 µM",10.3%
same,"viability, T/C","second compound 0.1 µM, first compound 0.1 µM",11.4%
same,"viability, T/C","second compound 0.316 µM, first compound 0.000316 µM",10.9%
same,"viability, T/C","second compound 0.316 µM, first compound 0.001 µM",10.8%
same,"viability, T/C","second compound 0.316 µM, first compound 0.00316 µM",13%
same,"viability, T/C","second compound 0.316 µM, first compound 0.01 µM",11.1%
same,"viability, T/C","second compound 0.316 µM, first compound 0.0316 µM",11.9%
same,"viability, T/C","second compound 0.316 µM, first compound 0.1 µM",12.8%
same,"viability, T/C","second compound 1 µM, first compound 0.000316 µM",14.7%
same,"viability, T/C","second compound 1 µM, first compound 0.001 µM",13.5%
same,"viability, T/C","second compound 1 µM, first compound 0.00316 µM",12.3%
same,"viability, T/C","second compound 1 µM, first compound 0.01 µM",12.8%
same,"viability, T/C","second compound 1 µM, first compound 0.0316 µM",9.82%
same,"viability, T/C","second compound 1 µM, first compound 0.1 µM",13.9%
